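Values below derive from 48-hour exposures of cells grown in 96-well plates, with endpoints linearly interpolated between the two concentrations bracketing the appropriate inhibition level. GI50 marks 50% less growth.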 The source made the active and inactive calls. Cut-off read from the data, not from the text of the source: active = GI50 up to about 1.1 µM and inactive = higher. Where a SMILES comes first, the peptide text is derived from it. [ ]: non-standard residue; d: D form. The star is where a group is joined. Phe(4-NO2) = N[CH](Cc1ccc([N+](=O)[O-])cc1)C(=O)O; Boc = CC(C)(C)OC(=O)*; OBn = c1ccc(CO*)cc1
What was measured:
Assay in all cases: inhibition of tumour cell growth, NCI panel, 48 h
[1] = test system: Malme-3M
[2] = test system: SW-620
[3] = test system: HL-60
[4] = test system: OVCAR-5
[5] = test system: NCI-H226
[6] = test system: PC-3
[7] = test system: M14
[8] = test system: OVCAR-4
[9] = test system: SR
[10] = test system: SK-MEL-2
[11] = test system: EKVX
[12] = test system: DU-145
[13] = test system: HCC 2998
[14] = test system: MCF7
[15] = test system: NCI-H460
[16] = test system: COLO 205
[17] = test system: SK-MEL-5
[18] = test system: OVCAR-3
[19] = test system: KM12

Measured: GI50

CSc1nc(SC)c2c(C)c(Br)[nH]c2n1
inactive: [1] > 100 µM | [2] > 100 µM | [3] > 100 µM | [4] > 100 µM | [5] > 100 µM | [6] > 100 µM | [7] > 100 µM | [8] > 100 µM | [9] > 100 µM | [10] > 100 µM | [11] 70.5 µM | [12] > 100 µM | [13] > 100 µM | [14] 30.9 µM | [15] > 100 µM | [16] > 100 µM | [17] > 100 µM | [18] > 100 µM | [19] > 100 µM

COC(=O)c1c(C)nc(C)c(N=O)c1-c1ccccc1C(F)(F)F
inactive: [1] 15.8 µM | [2] 15.5 µM | [3] 8 µM | [4] 21 µM | [5] 19.4 µM | [6] 34.2 µM | [7] 20 µM | [8] 16.1 µM | [9] 13.7 µM | [10] 36.1 µM | [11] 99.8 µM | [12] > 100 µM | [13] 79.6 µM | [14] 20.2 µM | [15] 80.4 µM | [16] 31.9 µM | [17] 26.5 µM | [18] 17.3 µM | [19] 19.1 µM

CN(C)/C=C1\CCc2ccc([N+](=O)[O-])cc2C1=O
inactive: [1] 33 µM | [2] 32.1 µM | [3] 25.7 µM | [4] > 100 µM | [5] > 100 µM | [6] 30.6 µM | [7] 89.9 µM | [8] 17.9 µM | [9] 31 µM | [10] > 100 µM | [11] > 100 µM | [12] > 100 µM | [13] 70.8 µM | [14] 26 µM | [15] 28.4 µM | [16] 25.5 µM | [17] 92.9 µM | [18] 18.3 µM | [19] 55.8 µM

Cc1ccc([N+](=O)[O-])cc1S(=O)(=O)Nc1ccc(C(=O)/C=C/c2cccs2)cc1
inactive: [1] 27.4 µM | [2] 22.4 µM | [3] 28.3 µM | [4] 31.5 µM | [5] 22.5 µM | [6] 21.1 µM | [7] 20.1 µM | [8] 22.5 µM | [9] 18.9 µM | [10] 20.6 µM | [11] 20.1 µM | [12] 23.3 µM | [13] 18.5 µM | [14] 15.7 µM | [15] 51.5 µM | [16] 24.1 µM | [17] 16.9 µM | [18] 20.8 µM | [19] 16.6 µM

COc1cc(C2SCC(=O)N2c2ccc(Cl)c(Cl)c2)cc(OC)c1OC (configuration not stated)
inactive: [1] > 100 µM | [2] 48 µM | [3] 19.5 µM | [4] 7.5 µM | [5] > 37 µM | [6] 54.2 µM | [7] 11.2 µM | [8] 27.4 µM | [9] 9.75 µM | [10] 30.2 µM | [11] 25.5 µM | [12] > 38.5 µM | [13] > 56.9 µM | [14] 38.2 µM | [15] 30.2 µM | [16] 34.3 µM | [17] 21.7 µM | [18] 34.1 µM | [19] 12.7 µM

COC(=O)C[C@H](CCSC)NC(=O)C[C@H](CCSC)NC(=O)C[C@H](CCSC)NC(=O)OC(C)(C)C
inactive: [1] > 100 µM | [2] > 100 µM | [3] 1.44 µM | [4] > 100 µM | [5] 41.7 µM | [6] > 100 µM | [7] 57.5 µM | [8] 20.3 µM | [9] 39.6 µM | [10] 24.2 µM | [11] 34.8 µM | [12] 87.3 µM | [13] > 100 µM | [14] 38.1 µM | [15] 69.8 µM | [16] > 100 µM | [17] 56.4 µM | [18] 22.5 µM | [19] > 100 µM

Nc1ncnc2c1ncn2CCCNO
inactive: [1] > 100 µM | [2] > 100 µM | [3] > 100 µM | [4] > 100 µM | [5] > 100 µM | [6] > 100 µM | [7] > 100 µM | [8] > 100 µM | [9] > 100 µM | [10] > 100 µM | [11] > 100 µM | [12] > 100 µM | [13] > 100 µM | [14] > 100 µM | [15] > 100 µM | [16] > 100 µM | [17] > 100 µM | [18] > 100 µM | [19] > 100 µM

COC(=O)CCC(NC(=O)OC(C)(C)C)C(=O)NC(Cc1ccc([N+](=O)[O-])cc1)C(=O)NCC(=O)OCc1ccccc1 (configuration not stated) (Boc-Glu(OMe)-[Phe(4-NO2)]-Gly-OBn; configuration not given here)
inactive: [1] > 100 µM | [2] > 100 µM | [3] > 74.1 µM | [4] > 100 µM | [5] > 64.1 µM | [6] > 100 µM | [7] > 100 µM | [8] > 92.3 µM | [9] > 53.8 µM | [10] > 77.1 µM | [11] > 60.8 µM | [12] > 100 µM | [13] 99.8 µM | [14] > 100 µM | [15] > 100 µM | [16] 38.7 µM | [17] > 100 µM | [18] > 100 µM | [19] > 100 µM
